According to paper PMC8305076, “Comprehensive Evaluation of Biological Effects of Pentathiepins on Various Human Cancer Cell Lines and Insights into Their Mode of Action” (International Journal of Molecular Sciences, 2021):
Where two headings read alike, the source gives them in different places.

Assays:
bovine erythrocyte GPx1 = target: T1, bovine erythrocyte GPx1 (Bos taurus, UniProt P00435); test: GPx1 enzyme activity assay (NADPH-coupled, t-BHP substrate); type: biochemical; parameters: key to GPx1 inhibition: no impact (0); weak impact (+); strong impact (++); conditions: for IC50: n ≥ 3; for GPx1 inhibition: summary grade
T1 construct: the isolated enzyme from bovine erythrocytes; purchased Sigma-Aldrich (Taufkirchen, Germany); host or cells: isolated from bovine erythrocytes
T1 sequence (P00435 1-205): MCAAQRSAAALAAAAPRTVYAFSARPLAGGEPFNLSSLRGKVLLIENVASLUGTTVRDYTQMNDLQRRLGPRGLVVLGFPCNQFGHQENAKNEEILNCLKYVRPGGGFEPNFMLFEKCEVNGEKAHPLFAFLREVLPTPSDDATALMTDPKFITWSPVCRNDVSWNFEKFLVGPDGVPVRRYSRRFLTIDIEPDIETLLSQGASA
Text: The inhibition of GPx1 by pentathiepins has already been reported by us previously. […] The resulting glutathione disulfide (GSSG) was reduced back to GSH by glutathione reductase (GR), thereby converting NADPH to NADP^+, which can be photometrically monitored at λ = 340 nm. The rate of NADPH consumption was used to quantify GPx1 enzyme activity. Dose-response graphs are presented in Figure 5a, and the corresponding IC50 values in Table 1. Relative IC50 describing the half-maximal inhibition of the enzyme were derived from the inflection point of the sigmoidal shaped graphs. Absolute IC50 was calculated via interpolation of the standard curve resulting in the concentration at which 50% of the GPx1 was inhibited.
The potential of the pentathiepins to inhibit the GPx1 was assessed with an enzymatic assay as described previously. It is based on the catalytic cycle of the enzyme coupled to an NADPH detection reaction. Here, a bovine erythrocyte GPx1 with a sequence similarity of 87% to the human homolog was used for reasons of affordability. The GPx1 was treated with either vehicle (solvent DMF) or the respective pentathiepin, and the reaction started by addition of tert-butylhydroperoxide (t-BHP). For the assay, all solutions were prepared with potassium phosphate buffer (50 mM, pH 7.4, EDTA 1.1 mM, Triton-X 0.01%), except for the inhibitors and t-BHP, which were diluted in DMF or water, respectively. First, 180 µL of a 0.125 U/mL GPx1 solution and 30 µL of a serial dilution of the putative inhibitor dissolved in DMF were added in triplicate to the wells of a UV-transparent 96-well plate. As a negative control, only DMF was appliedat the same dilution as the inhibitor solution.. All reagents including the GPx1 solution were pipetted. Then, 30 µL of a GSH solution (2.5 mM) and 30 µL of a GR/NADPH solution (2 U/mL; 2.0 mM) were added per well. The reaction was started by adding 30 µL of a t-BHP solution (5.0 mM). […] GPx1 activity was indirectly measured by monitoring the decrease of NADPH at λ = 340 nm for 30 min every 15 s at room temperature. The GPx1 activity of the treated samples was related to the solvent treated control and the relative activities analyzed in Prism 7 (GraphPad) via dose–response graphs and the calculation of the inflection point corresponding to the relative IC50 (half-maximal inhibitory concentration). The relative IC50 corresponds to the concentration at which half of the effect of the test compound is achieved. An absolute IC50, where 50% of the enzyme is inhibited, was calculated via interpolation of the sigmoidal graph.

HAP-1 and HAP-1.KO.GPx1 = test: DCFDA ROS assay with GSH added to the medium; type: cell-based, human; conditions: 25 µM pentathiepin plus 3 or 30 µM GSH in medium, 15 min
Protocol: As thiols are supposedly needed for the activation of the pentathiepins, the influence of additional glutathione added to the culture medium during treatment on the intracellular ROS levels was assessed. In these experiments, 3 or 30 µM of GSH were added to the medium containing 25 µM of pentathiepin or solvent, respectively (Figure 9).
In order to quantify intracellular ROS, we performed a flow cytometric assay based on the ROS-sensor 2′,7′-dichlorofluorescein diacetate (DCFDA). […] Per condition, 250,000 cells were seeded in 2 mL of medium per well of a 6-well plate and allowed to adhere overnight. For measurement of acute ROS, the cells were stained with 1 mL of a 20 µM DCFDA-PBS solution for 30 min under standard incubation conditions. […] After removing the solution and washing again with PBS, the cells were detached by using 0.5 mL of a diluted trypsin/EDTA-PBS solution (25%) and harvested with 1 mL of culture medium by carefully rinsing the wells. The cell suspension was transferred to 1.5 mL tubes, centrifuged for 5 min at 500× g, and washed with 1 mL of PBS. After removing the supernatant, each pellet was resuspended in 0.5 mL of PBS for measurement via the MACSquant Analyzer 10 at λEx/Em = 488/530 nm. Relative ROS levels resulting from treatment with pentathiepin were calculated by relating the fluorescence intensity of treated samples to the negative control. For the experiments covering periods of 24 and 48 h, the cells were incubated with the compounds first and stained with DCFDA afterwards. To assess the influence of additional GSH, we included 3 or 30 µM GSH to the medium containing 25 µM of pentathiepin, and the protocol was followed as described.

[1] = absolute IC50 (interpolation, 50% of GPx1 inhibited), read-out: Abs. IC50 (SD)
[2] = relative IC50 (inflection point of dose-response graph), t-BHP substrate, read-out: Rel. IC50 (CI 95%)
[3] = residual GPx1 activity at highest tested concentration of 12.5 µM

Structure (SMILES)	IC50 (bovine erythrocyte GPx1; [1]) [µM]	IC50 (bovine erythrocyte GPx1; [2]) [µM]	remaining activity at 12.5 µM (bovine erythrocyte GPx1; [3]) [%]	Residual Activity (%) (bovine erythrocyte GPx1; residual GPx1 activity at highest tested concentration of 12.5 µM, 12.5 µM)	GPx1 inhibition (bovine erythrocyte GPx1)	effect of added GSH on intracellular ROS (HAP-1 and HAP-1.KO.GPx1)	decrease of the activity of the bovine GPx (bovine erythrocyte GPx1; at 12.5 µM) [%]
CCOc1c2c(c3cnc4[nH]c(-c5ccc(OC)cc5)cc4n13)SSSSS2 [Compound 1, 11-Ethoxy-2-(4-methoxyphenyl)-3H-[1,2,3,4,5]pentathiepino[6′,7′:3,4]pyrrolo[1,2-a]pyrrolo[2,3-e]pyrazine]	1.49	0.92	16	16.4	++	No change was observed	–
CCOc1c2c(c3ccc(C(=O)N4CCCCC4)cn13)SSSSS2 [Compound 2, (6-Ethoxy-[1,2,3,4,5]pentathiepino[6,7-a]indolizin-9-yl)(piperidinyl)methanone]	3.25	2.28	27.5	–	+	roughly doubling the effect of the compound alone	–
CCOc1c2c(c3ccc(C(=O)N4CCOCC4)cn13)SSSSS2 [Compound 3, (6-Ethoxy-[1,2,3,4,5]pentathiepino[6,7-a]indolizin-9-yl)(morpholino)methanone]	0.91	0.56	29	–	++	tendency toward decreased oxidative stress	–
CCOc1c2c(c3ccc(C(=O)N(CC)CC)cn13)SSSSS2 [Compound 4, 6-Ethoxy-N,N’-diethyl-[1,2,3,4,5]pentathiepino[6,7-a]indolizine-9-carboxamide]	0.75	0.6	27.9	–	++	an ascending trend was observed but not determined as statistically significant	–
CCOc1c2c(c3ccc(C(=O)N4CCN(C(=O)c5ccc(F)cc5)CC4)cn13)SSSSS2 [Compound 5, (6-Ethoxy-[1,2,3,4,5]pentathiepino[6,7-a]indolizin-9-yl)(4-(4-fluorobenzoyl)piperazinyl)methanone]	1.17	0.63	28.7	–	++	roughly doubling the effect of the compound alone	–
CCOc1c2c(c3ccc(C(=O)N4CCN(S(=O)(=O)c5ccc(C)cc5)CC4)cn13)SSSSS2 [Compound 6, (6-Ethoxy-[1,2,3,4,5]pentathiepino[6,7-a]indolizin-9-yl)(4-tosylpiperazinyl)methanone]	> 12.5	> 12.5	53.3	–	0	tendency toward decreased oxidative stress	≤ 50
